For test [1], the system named is BRCA1 mRNA expression in MDA-MB-231 cells. The test can be described thus: qRT-PCR assay: BRCA1 mRNA expression in MDA-MB-231. Type of test: cell-based, human. The conditions noted are these: Homo sapiens, MDA-MB-231, Inhibition of BRCA1 mRNA expression in MDA-MB-231 cells; median; read-out: RTqPCR-MDA-MB-231, IC50, BRCA1 (median). How it is done: 3. qRT-PCR Assay: BRCA, ATR, MCL1 in MDA-MB-231, CAL-120
Tissue cultured human MDA-MB-231 human breast cancer cells were plated in 500 microL per well at 200,000 cells/well in a 24 well microtiter plate. After 24 h, the cells were exposed continuously for 24 h to test substances (substances were added with Tecan HP 0300 Dispenser). RNA was prepared using Qiagen RNeasy MiniKit (#74106), RNA was quantified using a NanoDrop Equipment, and 600 nano gamms of RNA was coverted to cDNA using a SuperScript VILO kit (Thermofisher #11755050) followed by qPCR amplification. BRCA1 and ATR gene expression was measured by RT-qPCR and normalised to GAPDH housekeeping gene expression. qPCR primer sets have been purchased from Thermo Fisher Scientific/Applied Biosystems: BRCA1, #Hs 01556193; ATR, #Hs 00992123; GAPDH, #Hs 03929097.
For orientation: Real-time PCR tracks product formation cycle by cycle.

The target in test [2] is T1, CDK12 (nuclear staining in CAL-120 cells) (Homo sapiens, UniProt Q9NYV4).
T1 construct: endogenous in cells; host or cells: CAL-120 human breast cancer cells (DSMZ ACC 459)
T1 sequence (Q9NYV4 whole entry): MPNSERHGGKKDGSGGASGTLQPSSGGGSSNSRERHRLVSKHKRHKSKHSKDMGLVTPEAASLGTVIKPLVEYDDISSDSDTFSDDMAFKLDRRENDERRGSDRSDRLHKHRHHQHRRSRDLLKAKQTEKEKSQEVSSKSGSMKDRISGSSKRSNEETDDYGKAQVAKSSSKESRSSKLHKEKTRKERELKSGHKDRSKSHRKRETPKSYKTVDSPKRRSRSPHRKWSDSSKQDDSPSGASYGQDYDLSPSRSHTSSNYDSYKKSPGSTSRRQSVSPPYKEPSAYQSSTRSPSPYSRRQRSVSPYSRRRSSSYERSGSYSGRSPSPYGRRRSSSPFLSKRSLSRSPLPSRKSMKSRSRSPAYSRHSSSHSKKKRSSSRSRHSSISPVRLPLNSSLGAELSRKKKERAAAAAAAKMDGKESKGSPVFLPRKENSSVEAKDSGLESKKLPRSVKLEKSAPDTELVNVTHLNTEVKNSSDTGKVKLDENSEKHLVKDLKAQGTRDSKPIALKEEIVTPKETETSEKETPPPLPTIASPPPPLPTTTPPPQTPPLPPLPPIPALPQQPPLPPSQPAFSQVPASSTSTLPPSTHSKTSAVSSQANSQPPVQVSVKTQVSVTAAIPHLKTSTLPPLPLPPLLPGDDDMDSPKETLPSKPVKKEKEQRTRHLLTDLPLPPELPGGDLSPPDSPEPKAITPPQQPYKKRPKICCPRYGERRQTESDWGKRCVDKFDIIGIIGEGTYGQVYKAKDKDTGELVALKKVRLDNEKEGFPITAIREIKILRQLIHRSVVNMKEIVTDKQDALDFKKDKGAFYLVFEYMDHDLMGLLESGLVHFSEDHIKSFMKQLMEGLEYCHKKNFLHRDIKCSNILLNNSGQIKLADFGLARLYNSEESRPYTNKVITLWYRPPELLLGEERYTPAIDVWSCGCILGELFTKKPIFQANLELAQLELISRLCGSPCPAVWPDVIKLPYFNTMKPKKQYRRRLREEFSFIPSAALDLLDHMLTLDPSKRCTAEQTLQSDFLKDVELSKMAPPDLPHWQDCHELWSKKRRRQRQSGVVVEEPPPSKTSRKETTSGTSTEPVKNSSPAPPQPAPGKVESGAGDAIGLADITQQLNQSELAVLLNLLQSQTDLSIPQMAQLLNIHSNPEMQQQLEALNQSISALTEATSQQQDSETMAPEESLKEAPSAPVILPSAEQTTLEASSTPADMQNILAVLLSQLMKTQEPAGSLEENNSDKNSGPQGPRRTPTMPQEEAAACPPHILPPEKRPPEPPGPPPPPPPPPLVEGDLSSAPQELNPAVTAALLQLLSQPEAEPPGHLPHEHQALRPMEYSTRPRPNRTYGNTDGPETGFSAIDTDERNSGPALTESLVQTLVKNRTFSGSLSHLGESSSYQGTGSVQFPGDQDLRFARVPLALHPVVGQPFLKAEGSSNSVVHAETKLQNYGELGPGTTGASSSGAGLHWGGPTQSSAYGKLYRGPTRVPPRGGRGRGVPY
T1 sequence (O75909 whole entry partner): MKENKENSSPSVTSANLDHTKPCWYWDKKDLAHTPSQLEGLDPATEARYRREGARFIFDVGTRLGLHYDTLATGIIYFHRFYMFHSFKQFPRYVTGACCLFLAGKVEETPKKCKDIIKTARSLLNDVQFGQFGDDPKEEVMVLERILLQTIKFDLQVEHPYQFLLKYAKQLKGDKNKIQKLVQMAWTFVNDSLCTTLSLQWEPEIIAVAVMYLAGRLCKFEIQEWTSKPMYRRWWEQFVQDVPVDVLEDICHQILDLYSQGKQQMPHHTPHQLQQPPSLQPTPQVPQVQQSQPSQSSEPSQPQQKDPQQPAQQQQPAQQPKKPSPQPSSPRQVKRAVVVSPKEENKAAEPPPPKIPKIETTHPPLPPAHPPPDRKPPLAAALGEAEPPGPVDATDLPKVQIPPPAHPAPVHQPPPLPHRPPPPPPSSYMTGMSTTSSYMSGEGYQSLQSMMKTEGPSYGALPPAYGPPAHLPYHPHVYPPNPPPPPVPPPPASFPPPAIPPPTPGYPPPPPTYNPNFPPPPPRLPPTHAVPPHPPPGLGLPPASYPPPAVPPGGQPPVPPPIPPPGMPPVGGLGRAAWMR
In words: CDK12 nuclear protein level: immunofluorescence/high content analysis (CAL-120). Type of test: cell-based. The conditions noted are these: for DC50: CAL-120 cells, 24 h, immunofluorescence, 50% reduction of nuclear CDK12 staining intensity, median, read-out: CDK12 degradation IF, DC50- [mol/l] (median); for (IC50 CDK12 high ATP) to (Degradation DC50 CDK12) ratio: ratio of IC50 CDK12 high ATP kinase assay to DC50 CDK12 degradation (IF, CAL-120). How it is done: In the context of the present invention, the term “DC50 CDK12” refers to the DC50 values obtained according to the assay described in this section (7) herein below, i.e. the DC50 values for the degradation of CDK12.
Plates are then incubated for 24 h at 37° C. in an humidified incubator and fixed with 4% PFA for 10 min. […] Nuclear and cytoplasmic intensity as well as the nuclear/cytoplasmic intensity ratio is determined by automated image analysis using custom generated scripts (MetaXpress). Data is then transferred to Genedata Screener software, normalized to DMSO and control and DC50 values (degrading concentration to achieve 50% reduction of nuclear CDK12 staining intensity relative to controls) are reported.

Test [3] concerns the target T2, CYCLIN K (nuclear staining in CAL-120 cells) (Homo sapiens, UniProt O75909).
T2 construct: endogenous in cells; host or cells: CAL-120 human breast cancer cells (DSMZ ACC 459)
In words: CYCLIN K nuclear protein level: immunofluorescence high content analysis (CAL-120). It counts as cell-based. The conditions noted are these: 24 h, 50% reduction of nuclear CCNK staining intensity, median, read-out: CYCLIN K degradation IF, DC50-[mol/l] (median). How it is done:
8. CYCLIN K nuclear protein level: immunofluorescence High Content Analysis
CAL-120 human breast cancer cells (DSMZ ACC 459) are seeded in 1536-well microtiter plates (800 cells per well) containing 50 nanoL of compounds in Dose-Response. Control wells received DMSO or Example 4. Plates are then incubated for 24 h at 37° C. in an humidified incubator and fixed with 4% PFA for 10 min. Then immunofluorescence (IF) against CYCLIN K (ThermoFisher Scientific CONK Antibody #PA5-85020, rabbit, 1:200 dilution) is performed using standard IF protocols. Cells are then stained with Hoechst 33342 (Life Technologies, H-1399, 0.1 microg/ml) and imaged on an automated confocal microscopy system (e.g. Perkin Elmer Opera Phenix). Nuclear and cytoplasmic intensity as well as the nuclear/cytoplasmic intensity ratio is determined by automated image analysis using custom generated scripts (MetaXpress). Data is then transferred to Genedata Screener software, normalized to DMSO and control and DC50 values (degrading concentration to achieve 50% reduction of nuclear CCNK staining intensity relative to controls) are reported.

Test [4] has as its target T3, CDK9/CycT1 (Homo sapiens, UniProt P50750).
T3 construct: Recombinant full-length His-tagged human CDK9 and CycT1; purchased Life Technologies PV4131; host or cells: insect cells
In words: CDK9/CycT1 high ATP kinase assay (TR-FRET, 2 mM ATP). It counts as biochemical. The conditions noted are these: 2 mM ATP (high ATP); median; read-out: CDK9/CyclinT1, 2 mM ATP (high ATP), IC50 (median). The protocol:
CDK9/CycT1-inhibitory activity of compounds of the present invention at a high ATP concentration after preincubation of enzyme and test compounds was quantified employing the CDK9/CycT1 TR-FRET assay as described in the following paragraphs.
Recombinant full-length His-tagged human CDK9 and CycT1, expressed in insect cells and purified by Ni-NTA affinity chromatography, were purchased from Life Technologies (Cat. No PV4131). As substrate for the kinase reaction biotinylated peptide biotin-Ttds-[…] (C-terminus in amide form) was used which can be purchased e.g. form the company JERINI peptide technologies (Berlin, Germany).
For the assay 50 nanoL of a 100 fold concentrated solution of the test compound in DMSO was pipetted into either a black low volume 384 well microtiter plate or a black 1536 well microtiter plate (both Greiner Bio-One, Frickenhausen, Germany), 2 microL of a solution of CDK9/CycT1 in aqueous assay buffer [50 millimol/L Tris/HCl pH 8.0, 10 millimol/L MgCl2, 1.0 millimol/L dithiothreitol, 0.1 millimol/L sodium ortho-vanadate, 0.01% (v/v) Nonidet-P40 (Sigma)] were added and the mixture was incubated for 15 min at 22° C. to allow pre-binding of the test compounds to the enzyme before the start of the kinase reaction. […] The concentration of CDK9/CycT1 was adjusted depending of the activity of the enzyme lot and was chosen appropriate to have the assay in the linear range, typical concentrations were in the range of 0.5 microg/ml.
The resulting mixture was incubated 1 h at 22° C. to allow the formation of complex between the phosphorylated biotinylated peptide and the detection reagents. Subsequently the amount of phosphorylated substrate was evaluated by measurement of the resonance energy transfer from the Eu-chelate to the streptavidine-XL. Therefore, the fluorescence emissions at 620 nm and 665 nm after excitation at 350 nm was measured in a TR-FRET reader, e.g. a Pherastar (BMG Labtechnologies, Offenburg, Germany) or a Viewlux (Perkin-Elmer). The ratio of the emissions at 665 nm and at […] was taken as the measure for the amount of phosphorylated substrate.

T2 sequence (O75909 whole entry): as the sequence (O75909 whole entry partner) above
T2 sequence (Q9NYV4 whole entry partner): as the sequence (Q9NYV4 whole entry) above
T3 sequence (P50750 whole entry): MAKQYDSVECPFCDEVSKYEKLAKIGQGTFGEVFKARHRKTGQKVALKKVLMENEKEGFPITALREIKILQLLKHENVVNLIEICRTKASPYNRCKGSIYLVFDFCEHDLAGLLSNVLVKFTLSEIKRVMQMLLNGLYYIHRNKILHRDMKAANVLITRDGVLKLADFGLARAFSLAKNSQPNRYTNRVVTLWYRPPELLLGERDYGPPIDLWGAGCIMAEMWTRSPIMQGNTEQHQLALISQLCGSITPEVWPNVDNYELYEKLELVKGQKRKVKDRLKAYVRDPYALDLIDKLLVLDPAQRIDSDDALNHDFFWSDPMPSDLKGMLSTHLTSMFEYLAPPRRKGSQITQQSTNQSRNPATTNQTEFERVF
T3 sequence (O60563 whole entry partner): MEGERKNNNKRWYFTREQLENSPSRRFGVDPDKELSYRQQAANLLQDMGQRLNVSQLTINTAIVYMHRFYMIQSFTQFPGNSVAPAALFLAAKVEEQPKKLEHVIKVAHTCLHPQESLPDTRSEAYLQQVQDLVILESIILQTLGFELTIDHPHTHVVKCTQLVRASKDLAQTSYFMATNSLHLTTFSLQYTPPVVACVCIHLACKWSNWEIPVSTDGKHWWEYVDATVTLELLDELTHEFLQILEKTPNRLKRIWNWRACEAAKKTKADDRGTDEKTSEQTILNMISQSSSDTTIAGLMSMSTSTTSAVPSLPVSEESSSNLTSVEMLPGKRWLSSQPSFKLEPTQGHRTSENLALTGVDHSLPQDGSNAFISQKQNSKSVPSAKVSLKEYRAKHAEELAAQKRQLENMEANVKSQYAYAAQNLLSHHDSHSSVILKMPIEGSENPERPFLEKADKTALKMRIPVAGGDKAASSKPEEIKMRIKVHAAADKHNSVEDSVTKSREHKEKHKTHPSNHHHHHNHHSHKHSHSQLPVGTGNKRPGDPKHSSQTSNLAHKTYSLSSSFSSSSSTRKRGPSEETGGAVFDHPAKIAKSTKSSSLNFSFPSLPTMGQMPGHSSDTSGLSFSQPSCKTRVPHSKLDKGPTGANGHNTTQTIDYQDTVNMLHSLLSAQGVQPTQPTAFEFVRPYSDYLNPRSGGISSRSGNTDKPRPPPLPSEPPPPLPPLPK

On to `Fc1cccc(-c2nnc(CNc3nc(N4C[C@H]5C[C@@H]4CO5)nc4c(Br)cnn34)[nH]2)c1` [Example 153, 8-bromo-N-{[5-(3-fluorophenyl)-4H-1,2,4-triazol-3-yl]methyl}-2-[(1R,4R)-2-oxa-5-azabicyclo[2.2.1]heptan-5-yl]pyrazolo[1,5-a][1,3,5]triazin-4-amine], for which the IC50 in test [1] was 8.2 nM; in test [4], 1230 nM. For the same compound, the DC50 amounted to 2.58 nM in test [2] and 1.42 nM in test [3]. Also, the “(IC50 CDK12 high ATP) to (Degradation DC50 CDK12) ratio” value in test [2] is recorded as 1143.

On to `CCN1CCN(c2nc(NCc3nc4ccccc4[nH]3)n3ncc(Br)c3n2)CC1` [Example 137, N-[(1H-benzimidazol-2-yl)methyl]-8-bromo-2-(4-ethylpiperazin-1-yl)pyrazolo[1,5-a][1,3,5]triazin-4-amine], for which the IC50 was 205 nM in test [1] and above 20000 nM in test [4]. The DC50 in test [2] was 10.8 nM; in test [3], 4.68 nM. For the same compound, the “(IC50 CDK12 high ATP) to (Degradation DC50 CDK12) ratio” value in test [2] is recorded as 1196.

`C[C@@H]1CN(c2nc(NCc3nc4cc(F)ccc4[nH]3)n3ncc(Br)c3n2)C[C@H](C)O1` [Example 110, 8-bromo-2-[(2R,6S)-2,6-dimethylmorpholin-4-yl]-N-[(5-fluoro-1H-benzimidazol-2-yl)methyl]pyrazolo[1,5-a][1,3,5]triazin-4-amine]: the results for the IC50 in test [1] and in test [4] were 7.51 nM and 5470 nM, respectively. In addition, the DC50 worked out at 1.03 nM in test [2] and 0.354 nM in test [3]. In addition, the “(IC50 CDK12 high ATP) to (Degradation DC50 CDK12) ratio” value in test [2] came out at 394.

As for `Brc1cnn2c(NCc3nc4ccccc4[nH]3)nc(N3CCOCC3C3CC3)nc12` (stereo not shown) [Example 117, N-(1H-benzimidazol-2-ylmethyl)-8-bromo-2-(3-cyclopropylmorpholin-4-yl)pyrazolo[1,5-a][1,3,5]triazin-4-amine], the figures for the IC50 in test [1] and in test [4] were 121 nM and above 20000 nM, respectively. Further, the DC50 in test [2] is 3.77 nM; in test [3], 2.62 nM. The “(IC50 CDK12 high ATP) to (Degradation DC50 CDK12) ratio” value in test [2] is reported as 1278.

Regarding `C[C@H]1CN(c2nc(NCc3nnc(-c4cccc(F)c4)[nH]3)n3ncc(Br)c3n2)CCN1C` [Example 154, 8-bromo-2-[(3S)-3,4-dimethylpiperazin-1-yl]-N-{[5-(3-fluorophenyl)-4H-1,2,4-triazol-3-yl]methyl}pyrazolo[1,5-a][1,3,5]triazin-4-amine], the IC50 is 7.04 nM in test [1] and 2560 nM in test [4]. Besides, the DC50 in test [2] was determined as 5.27 nM; in test [3] it was 0.713 nM. Besides, the “(IC50 CDK12 high ATP) to (Degradation DC50 CDK12) ratio” value in test [2] is reported as 1360.

Consider `CN1CCN(c2nc(NCc3nc4cc(F)ccc4[nH]3)n3ncc(C4CC4)c3n2)CC1` [Example 164, 8-cyclopropyl-N-[(5-fluoro-1H-benzimidazol-2-yl)methyl]-2-(4-methylpiperazin-1-yl)pyrazolo[1,5-a][1,3,5]triazin-4-amine], for which the IC50 was 2.55 nM in test [1] and above 20000 nM in test [4]. For the same compound, the results for the DC50 in test [2] and in test [3] were 0.99 nM and 1.12 nM, respectively. The “(IC50 CDK12 high ATP) to (Degradation DC50 CDK12) ratio” value in test [2] is above 20194.

On to `CN1CCN(c2nc(NCc3nnc(-c4cccc(F)c4)[nH]3)n3ncc(Br)c3n2)CC1` [Example 136, 8-bromo-N-{[5-(3-fluorophenyl)-4H-1,2,4-triazol-3-yl]methyl}-2-(4-methylpiperazin-1-yl)pyrazolo[1,5-a][1,3,5]triazin-4-amine], for which the IC50 in test [1] was found to be 33.8 nM; in test [4], 1420 nM. The DC50 is 3.61 nM in test [2] and 0.464 nM in test [3]. In test [2], the “(IC50 CDK12 high ATP) to (Degradation DC50 CDK12) ratio” value amounted to 1140.

Consider `Brc1cnn2c(NCc3nnc(-c4ccccc4)[nH]3)nc(N3C[C@H]4C[C@@H]3CO4)nc12` [Example 118, 8-bromo-2-[(1R,4R)-2-oxa-5-azabicyclo[2.2.1]heptan-5-yl]-N-[(5-phenyl-4H-1,2,4-triazol-3-yl)methyl]pyrazolo[1,5-a][1,3,5]triazin-4-amine], for which the IC50 turned out to be 26.1 nM in test [1] and 3630 nM in test [4]. Moreover, the DC50 was 4.85 nM in test [2] and 2.98 nM in test [3]. Further, the “(IC50 CDK12 high ATP) to (Degradation DC50 CDK12) ratio” value in test [2] stood at 1176.

For `C[C@H]1CN(c2nc(NCc3nc4ccccc4[nH]3)n3ncc(Br)c3n2)CCN1C` [Example 132, N-[(1H-benzimidazol-2-yl)methyl]-8-bromo-2-[(3S)-3,4-dimethylpiperazin-1-yl]pyrazolo[1,5-a][1,3,5]triazin-4-amine], the figures for the IC50 in test [1] and in test [4] were 29.5 nM and above 20000 nM, respectively. Moreover, the DC50 came out at 0.922 nM in test [2] and 2.22 nM in test [3]. For the same compound, the “(IC50 CDK12 high ATP) to (Degradation DC50 CDK12) ratio” value in test [2] is above 20812.

Consider `C[C@H]1CN(c2nc(NCc3nnc(-c4ccccc4)[nH]3)n3ncc(Br)c3n2)CCN1C.O=CO` [Example 122, 8-bromo-2-[(3S)-3,4-dimethylpiperazin-1-yl]-N-[(5-phenyl-4H-1,2,4-triazol-3-yl)methyl]pyrazolo[1,5-a][1,3,5]triazin-4-amine formate], for which the IC50 in test [1] is 24.6 nM; in test [4], 4260 nM. Besides, the DC50 came to 2.47 nM in test [2] and 0.735 nM in test [3]. In addition, in test [2], the “(IC50 CDK12 high ATP) to (Degradation DC50 CDK12) ratio” value was above 8081.

As for `COc1ccc2[nH]c(CNc3nc(N4CCN(C)CC4)nc4c(Br)cnn34)nc2c1` [Example 161, 8-bromo-N-[(5-methoxy-1H-benzimidazol-2-yl)methyl]-2-(4-methylpiperazin-1-yl)pyrazolo[1,5-a][1,3,5]triazin-4-amine], the figures for the IC50 in test [1] and in test [4] were 2.53 nM and above 20000 nM, respectively. Also, the values for the DC50 in test [2] and in test [3] were 0.856 nM and 1.3 nM, respectively. Further, the “(IC50 CDK12 high ATP) to (Degradation DC50 CDK12) ratio” value in test [2] came out at 11233.

(Values after patent publication US20230117034A1, “PYRAZOLOTRIAZINES” (Bayer Aktiengesellschaft, priority 2019, published 2023).)
